The source made the active and inactive calls. How the calls were made is not given here.
Target: Toxin B (TcdB) glycohydrolase, Clostridioides difficile 630
Assay: TcdB glycohydrolase inhibitors, dose response, biochemical, cherry-pick, plate reader (AID 720512)
Conditions: recombinant TcdB glycohydrolase activity

| Structure (SMILES) | AC50 |
| --- | --- |
| O=S(=O)(Oc1ccccc1/C=N/n1cnnc1)c1ccccc1 | > 39 µM (inactive) |
| CC1CCC/C(=C\c2ccc(O)cc2)C1=O (stereo unspecified) | 16.9 µM |
| CCOC(=O)/C(=N/Nc1ccc(Br)cc1)N1CC(C)OC(C)C1 (stereo unspecified) | 6.61 µM |
| COC(=O)/C=C/C(=O)Nc1ccc(O)c(Cl)c1 | 20.9 µM |
| CCNC(=O)C[C@H]1CC[C@@H]2[C@@H](COc3ccc(NC(=O)c4cccc(OC)c4)cc3C(=O)N2C)O1 | > 39 µM (inactive) |
| CCOC(=O)c1[nH]nc(-c2cc(CC)c(O)cc2O)c1-c1cscn1 | > 39 µM (inactive) |
| Nc1ccc2nc(-c3cccs3)[nH]c2c1 | > 39 µM (inactive) |

Same assay, conditions: recombinant TcdB glycohydrolase activity, at 19.5 µM (top of the series)

| Structure (SMILES) | activity change, negative = inhibition |
| --- | --- |
| O=C(CN1C(=O)NC2(CCCc3ccccc32)C1=O)NCc1cccs1 (stereo unspecified) | inactive |
| O=C(N[C@@H](Cc1c[nH]c2ccccc12)C(=O)O)C1CCN(S(=O)(=O)c2cccs2)CC1 | inactive |
| O=c1oc(-c2ccc(Br)cc2)nc2ccccc12 | inactive |
| COc1ccccc1-n1c(SCC(=O)O)nc2c(sc(=S)n2-c2ccc(Cl)c(C)c2)c1=O | inactive |
| CC[n+]1ccc(/C=C/c2ccc(N(C)C)cc2)c2ccccc21 | inactive |
| C=CCN=c1scc(C)n1/N=C/c1ccc(O)c(O)c1 | inactive |
| CN(C)c1ccc(C(=S)N2CCN(C(=S)Nc3ccc(Cl)cc3)CC2)cc1 | inactive |
| COc1cc(/C=C/c2sc3ccccc3[n+]2CCCS(=O)(=O)[O-])ccc1O | inactive |
| Oc1ccc(CCNc2ncnc3ccc(Cl)cc23)cc1 | inactive |
| Cc1ccc(C(=O)COC(=O)c2cc(=O)[nH]c3ccccc23)cc1 | inactive |
| Cc1ccc(S(=O)(=O)Nc2cccnc2Oc2ccc(Cl)cc2)cc1 | inactive |
| Nc1cc(=O)[nH]c(SCC(=O)Nc2ccccc2Sc2ccc(Cl)cc2)n1 | inactive |
| O=C(C[C@@H]1C[C@@H]2c3cc(NC(=O)c4ccc5c(c4)OCO5)ccc3O[C@@H]2[C@@H](CO)O1)NCc1cccc(F)c1 | inactive |
| COc1ccc(C(=O)Nc2ccccc2C(=O)O)cc1Cl | inactive |
| Cc1ccc(NNC(=O)c2ccno2)cc1Cl | inactive |
| O=C(Nc1ccccc1F)N1C[C@@H]2N[C@H](C1)C2c1ccc(-c2cccc(F)c2)cc1 (stereo partly specified) | inactive |
| Cc1onc(-c2ccccc2)c1C(=O)N(Cc1ccco1)Cc1cccs1 | inactive |
| Nc1ccc2c(c1)[nH]c(=O)c1cc(N)ccc12 | inactive |
| CC(=O)C(Sc1nccc(-c2cccs2)n1)C(C)=O | inactive |
| Fc1ccc(-c2nc3ccc(Br)cn3c2Cc2ccccc2)cc1 | inactive |
| Cc1nc2ccccc2nc1OCC(=O)Nc1ccc(F)cc1 | inactive |

| Structure (SMILES) | activity change, negative = inhibition |
| --- | --- |
| COc1cc(OC)cc(C(=O)NNC(=O)CN2C(=O)NC(C)(c3ccc(C)cc3)C2=O)c1 (stereo unspecified) | inactive |
| O=c1[nH]c2cc(O)ccc2c2ccccc12 | inactive |
| C[C@H](CO)N1C[C@H](C)[C@@H](CN(C)C(=O)Nc2ccc(C(F)(F)F)cc2)Oc2c(NS(=O)(=O)c3cn(C)cn3)cccc2C1=O | inactive |
| COc1cc(/C=C(\C#N)C(=O)N2CCCCC2)ccc1O | inactive |
| COc1ccc(-c2ccc3c(c2)[C@H]2[C@H](CCN2C(=O)Cc2cccnc2)[C@@H](CO)N3C)cc1 | inactive |
| COc1ccc(CNC(=O)C2CCN(S(=O)(=O)c3c(C)noc3/C=C/N(C)C)CC2)cc1 | inactive |
| COc1ccccc1CNC(=O)CNC(=O)N1CC(=O)Nc2ccccc21 | inactive |
| CS(=O)(=O)N(CC(=O)Nc1ccc(S(=O)(=O)N2CCOCC2)cc1)c1ccccc1Br | inactive |
| CCOC(=O)Cn1c(C(F)(F)F)nc2nc(Cl)c(Cl)nc21 | inactive |
| O=C(O)c1c(C(=O)O)c(-c2ccc(Br)cc2)n2c1CSC2 | inactive |
| O=[N+]([O-])c1c(Nc2ccccc2O)ccc2nonc12 | inactive |
| CCOC(=O)N1CCC(c2cc(=O)n3[nH]c(-c4ccccc4)cc3n2)CC1 | inactive |
| S=c1[nH]nc(-c2ccccn2)n1/N=C/c1ccc(Cl)cc1 | inactive |
| CC(=O)Nc1ccccc1O | inactive |
| O=C(CCn1cnc2ccccc21)N/N=C/c1ccc(O)cc1 | inactive |
| Cc1nn(C2CC(O)C(O)C(CO)O2)c(=O)[nH]c1=O (stereo unspecified) | inactive |
| COc1ccc(C(=O)Nc2ccc3c(c2)C(=O)N(C)[C@@H]2CC[C@H](CC(=O)NCC4CC4)O[C@@H]2CO3)cc1 | inactive |
| CC1CCN(CCCn2c(=S)[nH]c3c(sc4ccccc43)c2=O)CC1 | inactive |
| O=P1(Oc2ccccc2)OCCCS1 (stereo unspecified) | inactive |
| COc1ccc(OCc2cc(-c3ccc(Cl)cc3)no2)cc1 | inactive |
| O=C(O)c1ccc2c(c1)N(Cc1cccc(F)c1)C(=O)CS2 | inactive |

| Structure (SMILES) | activity change, negative = inhibition |
| --- | --- |
| CC(C)C12NC(=O)NC(=O)N1CCS2 (stereo unspecified) | inactive |
| COc1ccc(-c2ccc3c(c2)[C@H]2[C@H](CCN2C(=O)CN2CCOCC2)[C@@H](CO)N3)cc1 | inactive |
| O=C1COc2ccc(C(=O)COC(=O)CNS(=O)(=O)c3cccc(F)c3)cc2N1 | inactive |
| COc1ccc(NC(=O)CSc2nccn2C)cc1S(N)(=O)=O | inactive |
| CC(=O)C1=CCC(c2ccc(C)cc2)N(S(=O)(=O)c2ccc(C)cc2)C1 (stereo unspecified) | inactive |
| C[C@H]1CN([C@@H](C)CO)S(=O)(=O)c2ccc(-c3ccncc3)cc2O[C@H]1CN(C)Cc1ccc(Oc2ccccc2)cc1 | inactive |
| COc1cccc(-n2c(SCC(=O)N3CCOCC3)nnc2-c2c[nH]c3ccccc23)c1 | inactive |
| CS(=O)(=O)N1CCc2cc(C(=O)Nc3ccc(O)cc3)ccc21 | inactive |
| O=C(COc1ccc2ccc(=O)oc2c1)NCCN1CCOCC1 | inactive |
| Cn1c(-c2ccc(F)c(F)c2)cc2onc(-c3ccccc3)c2c1=O | inactive |
| COc1ccc(-c2nc(N)ncc2-c2ccccc2OC)c(O)c1 | inactive |
| COc1cc(OC)c(OC)cc1/C=C/c1ccnc2ccccc12 | inactive |
| Cc1ccc(S(=O)(=O)N2CCCC2C(=O)Nc2ccc(O)cc2)cc1 (stereo unspecified) | inactive |
| O=C(O)c1cc(S(=O)(=O)Nc2ccc3cn[nH]c3c2)ccc1Cl | inactive |
| Nc1nc(Cl)cc(NCCc2ccc(O)cc2)n1 | inactive |
| O=C(C[C@@H]1CC[C@@H]2[C@H](COC[C@@H](O)CN2C(=O)c2ccccn2)O1)NC1CCC1 | inactive |
| COc1ccc(C=NNC(=O)c2cc(C)oc2C)cc1O | inactive |
| CC(Sc1nccn1C)C(=O)c1c(N)n(C)c(=O)n(C)c1=O (stereo unspecified) | inactive |
| O=C(Nc1ccc2c(c1)OCCO2)c1cc2ccccc2o1 | inactive |
| Cc1onc(-c2ccccc2Cl)c1C(=O)Nc1cnn(Cc2ccccc2)c1 | inactive |
| N/C(=N\N=C\c1ccc(O)cc1)c1nonc1N | inactive |

| Structure (SMILES) | activity change, negative = inhibition |
| --- | --- |
| COc1cc(C=NNC(=O)c2ccccc2-n2cccc2)ccc1O | inactive |
| O=C(Nc1ccc(O)cc1)C1CCCN1S(=O)(=O)c1ccc(F)cc1 (stereo unspecified) | inactive |
| Cc1cccc2sc(NNC(=O)C3COc4ccccc4O3)nc12 (stereo unspecified) | inactive |
| CCC(=O)Nc1ccc2c(c1)OC[C@H](C)N(C(=O)NC(C)C)C[C@H](C)[C@H](OC)CN(C)C2=O | inactive |
| Cc1cc(C)c(NS(=O)(=O)c2cccc3cccnc23)c(C)c1 | inactive |
| COc1cc2nncc(SC)c2cc1OC | inactive |
| O=C(CSc1nnc(-c2ccncc2)o1)N1CCCCCC1 | inactive |
| COC(=O)C1=C(c2ccc(OCc3ccccc3)cc2)C[C@@H]2CC[C@H]1N2C(=O)NCCCc1ccccc1 | inactive |
| C/C(=N\NC(=O)CSc1nc2ccccc2c(=O)n1-c1ccccc1C)c1cccs1 | inactive |
| Cc1cc(C)c(S(=O)(=O)c2ccc(Cl)cc2C)c(Cl)n1 | inactive |
| Cc1c(C(=O)c2ccccc2)c2ccccn2c1CCc1ccccn1 | inactive |
| COc1ccccc1OCC(=O)Nc1ccc(-c2nnc(-c3ccco3)o2)cc1 | inactive |
| O=C(C1CCOCC1)N1CC[C@@H]2[C@@H](CO)Nc3ccc(-c4ccc(F)cc4)cc3[C@@H]21 | inactive |
| COc1cc(/C=C/C(=O)OCC(=O)N(C)Cc2ccccc2)ccc1O | inactive |
| COc1ccc(/C=C/c2nc3ccccc3n2C)cc1 | inactive |
| CC(C)NC(=O)N1CC[C@@H]2[C@H]1c1cc(-c3ccc(F)cc3)ccc1N(C)[C@H]2CO | inactive |
| CCOc1ccccc1NC(=O)CCNS(=O)(=O)c1cccc2nonc12 | inactive |
| CCN1/C(=C2\OC(=S)N(C)C2=O)C=Cc2ccccc21 | inactive |
| COc1ccc(NC(=O)c2cc(C)nc3ccccc23)c(OC)c1 | inactive |

Same assay, conditions: recombinant TcdB glycohydrolase activity, at 21 µM (top of the series)

| Structure (SMILES) | activity change, negative = inhibition |
| --- | --- |
| C[C@@H]1CN([C@@H](C)CO)C(=O)c2c(c3ccccc3n2C)-c2ccccc2CO[C@@H]1CN(C)C | inactive |
| COCC(=O)N1CC[C@@H]2[C@H]1c1cc(-c3cccc(OC)c3)ccc1N(C)[C@H]2CO | inactive |
